Patent US20260070917A1, “CYCLIN DEPENDENT KINASE DEGRADERS AND METHODS OF USE THEREOF” (Differentiated Therapeutics Inc, priority 2023, published 2026)

Tests used:
Assay type in all cases: cell-based
CDK2 = target: T1, CDK2 (Homo sapiens, UniProt P24941); assay: HiBit Assay Protocol for CDK2 (HIBIT protein quantification, degradation); details: HEK293-CDK2-Hibit cells, compound treatment for 6 hours; for DC50: ABS DC50
T1 construct: host or cells: HEK293-CDK2-Hibit
Description: HiBit Assay Protocol for CDK2
• 1. The culture medium for HEK293-CDK2-Hibit cells was prepared using DMEM with 10% FBS. • 2. Cells were cultivated in T-75 flasks in a cell culture incubator set at 37° C., 5% CO2, 95% relative humidity. Cells were allowed to reach 80-90% confluence before detaching and splitting. • 3. Cultivated cells were rinsed in T-75 flasks with 5 mL PBS. Aspirate off Added was 1.5 mL trypsin, and the cells were incubated at 37° C. for approximately 5 minutes or until the cells detached and floated. • 4. Trypsin was inactivated by adding excess serum containing medium. • 5. Cells were harvested from flask into cell culture medium and then the cell number was counted. HEK293-CDK2-Hibit cells were seeded into 384-well plate (cell density: 1.6×10^5 cells/well/50 uL medium) in DMEM medium according to the plate map below and incubated overnight at 37° C. and 5% CO2. • Note: Cell Cultured Medium: 90% DMEM+10% FBS+1% Penicillin-Streptomycin Liquid
(§1) • 1. Test compounds were dissolved at 10 mM DMS stock solution. 45 uL of stock solution was transferred to a 384 pp-plate. A 3-fold, 10-point dilution was performed via transferring 15 uL compound into 30 uL DMSO by using TECAN liquid handler. • 2. The plates were spinned at room temperature at 1,000 RPM for 1 minute. • 3. 50 nL of diluted compound was transferred from compound source plate into the cell plate by Echo. • 4. After compound treatment for 6 hours, the plate was removed from incubators and equilibrated at room temperature for 15 minutes. The HiBit reagent was prepared, consisting of the following ratios: 10 mL of Nano-Glo®-HiBiT Lytic Buffer, 200 μL of Nano-Glo®-HiBiT Lytic Substrate and 100 uL of LgBiT Protein, mixed thoroughly. 20 μL of HiBit reagent was added into each well and the plates were spinned at room temperature at 1,000 RPM for 1 minute to be detected. Then the plates were shaken at 600 RPM at room temperature for 20 minutes, and read by EnVision. • 5. The inhibition activity was calculated following the formula below:
(§2) [formula] • Note: Where HC is obtained from cells treated with […] only; LC is obtained from culture medium only. • 6. ABS DC50 was calculated by fitting the Curve using Xlfit (v5.3.1.3), equation 201: […]

CCNE1 = target: T2, CCNE1 (Homo sapiens, UniProt P24864); assay: HiBit Assay Protocol for CCNE1 (HIBIT protein quantification, degradation); details: HEK293-CCNE1-Hibit cells, compound treatment for 6 hours
T2 construct: host or cells: HEK293-CCNE1-Hibit
Description: HiBit Assay Protocol for CCNE1
• 1. The culture medium for HEK293-CCNE1-Hibit cell was prepared using EMEM with […]. • 2. Cells were cultivated in T-75 flasks in a cell culture incubator set at 37° C., 5% CO2, 95% relative humidity. Cells were allowed to reach 80-90% confluence before detaching and splitting. • 3. Cultivated cells were rinsed in T-75 flasks with 5 mL PBS. Aspirate off Added was 1.5 mL trypsin, and the cells were incubated at 37° C. for approximately 5 minutes or until the cells detached and floated. • 4. Trypsin was inactivated by adding excess serum containing medium. • 5. Cells were harvested from flask into cell culture medium and then the cell number was counted. HEK293-CCNE1-Hibit cell were seeded into 384-well plate (cell density: 1.6×10^5 cells/well/50 uL medium) in EMEM medium according to the plate map below and incubated overnight at 37° C. and […]. • Note: Cell Cultured Medium: 90% EMEM+10% FBS+1% Penicillin-Streptomycin Liquid
as §1, with “mM DMSO” for “mM DMS”, “45 μL” for “45 uL”, “100 μL” for “100 uL”, “Protein, mix” for “Protein, mixed”
as §2

CDK9 = target: T3, CDK9 (Homo sapiens, UniProt P50750); assay: HiBit Assay Protocol for CDK9 (HIBIT protein quantification, degradation); details: HEK293-CDK9-Hibit cells, compound treatment for 6 hours; for Dmax: 6 h, read-out: CDK9 HIBIT Protein Quantification Maximum; for DC50: ABS DC50
T3 construct: host or cells: HEK293-CDK9-Hibit
Description: HiBit Assay Protocol for CDK9
• 1. The culture medium for HEK293-CDK9-Hibit cell was prepared using DMEM with 10% FBS. • 2. Cells were cultivated in T-75 flasks in a cell culture incubator set at 37° C., 5% CO2, 95% relative humidity. Cells were allowed to reach 80-90% confluence before detaching and splitting. • 3. Cultivated cells were rinsed in T-75 flasks with 5 mL PBS. Aspirated off. Added 1.5 mL trypsin, and incubated the cells at 37° C. for approximately 5 minutes or until the cells detached and floated. • 4. Trypsin was inactivated by adding excess serum containing medium. • 5. Cells were harvested from flask into cell culture medium and then the cell number was counted. HEK293-CDK9-Hibit cells were seeded into 384-well plate (cell density: 1.6×10^5 cells/well/50 uL medium) in DMEM medium according to the plate map below and were incubated overnight at 37° C. and 5% CO2. • Note: Cell Cultured Medium: 90% DMEM+10% FBS+1% Penicillin-Streptomycin Liquid
• 1. Test compounds were dissolved at 3 mM DMSO stock solution. Transferred 45 uL of stock solution to a 384 pp-plate. Perform 3-fold, 10-point dilution via transferring 15 uL compound into 30 uL DMSO by using TECAN liquid handler. • 2. The plates were spinned at room temperature at 1,000 RPM for 1 minute. • 3. Transferred 50 nL of diluted compound from compound source plate into the cell plate by Echo. • 4. After compound treatment for 6 hours, removed the plate from incubators and equilibrated at room temperature for 15 minutes. Prepared the HiBit reagent consists of the following ratios: 10 mL of Nano-Glo®-HiBiT Lytic Buffer, 200 uL of Nano-Glo®-HiBiT Lytic Substrate and 100 uL of LgBiT Protein, mixed thoroughly. Added 20 uL of HiBit reagent into each well and spinned the plates at room temperature at 1,000 RPM for 1 minute to be detected. Plates were then shaken at 600 RPM at room temperature for 20 minutes, and read by EnVision. • 5. The inhibition activity was calculated following the formula below:
[formula] • Note: Where HC was obtained from cells treated with 0.1% DMSO only; LC was obtained from culture medium only. • 6. The ABS DC50 was calculated by fitting the Curve using Xlfit (v5.3.1.3), equation 201: […]

T3 sequence (P50750 whole entry): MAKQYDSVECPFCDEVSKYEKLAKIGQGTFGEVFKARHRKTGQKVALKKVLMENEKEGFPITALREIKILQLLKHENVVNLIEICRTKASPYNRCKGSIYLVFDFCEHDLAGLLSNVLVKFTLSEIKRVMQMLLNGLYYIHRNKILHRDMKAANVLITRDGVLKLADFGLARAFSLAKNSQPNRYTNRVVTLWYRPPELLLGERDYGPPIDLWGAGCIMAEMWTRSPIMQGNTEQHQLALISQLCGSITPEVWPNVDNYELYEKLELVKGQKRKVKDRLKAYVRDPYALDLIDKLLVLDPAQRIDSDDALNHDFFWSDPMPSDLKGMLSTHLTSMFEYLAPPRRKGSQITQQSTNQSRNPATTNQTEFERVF
T2 sequence (P24864 whole entry): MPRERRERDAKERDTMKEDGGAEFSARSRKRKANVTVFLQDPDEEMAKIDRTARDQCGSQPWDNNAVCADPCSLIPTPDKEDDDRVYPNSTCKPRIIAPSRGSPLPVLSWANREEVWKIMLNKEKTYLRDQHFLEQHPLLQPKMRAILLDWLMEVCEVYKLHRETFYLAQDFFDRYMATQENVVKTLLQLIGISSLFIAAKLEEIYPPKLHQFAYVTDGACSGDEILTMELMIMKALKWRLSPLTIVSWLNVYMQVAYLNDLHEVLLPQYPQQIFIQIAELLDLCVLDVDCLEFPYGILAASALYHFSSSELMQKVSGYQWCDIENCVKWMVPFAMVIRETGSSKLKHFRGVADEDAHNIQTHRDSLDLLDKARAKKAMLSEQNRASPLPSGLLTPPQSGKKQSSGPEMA

CDK2 HIBIT Protein Quantification Maximum (CDK2) | DC50 (CDK2) | CCNE1 HIBIT Protein Quantification Maximum (CCNE1) | Dmax (CDK9) | DC50 (CDK9) | Structure (SMILES)
63% | 0.012 µM | 20% | 5% |  | CC1CCCC1N1C(=O)C2(CC2)c2cnc(NC3CCN(S(=O)(=O)N4CC5(CCCN(C(=O)CCc6cccc7c6n(C)c(=O)n7C6CCC(=O)NC6=O)C5)C4)CC3)nc21 (stereo not drawn) [Compound 18]
19% |  | 26% | 25% |  | CC1CCCC1N1C(=O)C2(CC2)c2cnc(NC3CCN(S(=O)(=O)N4CC5(CN(C(=O)CCc6cccc7c6n(C)c(=O)n7C6CCC(=O)NC6=O)C5)C4)CC3)nc21 (stereo not drawn) [Compound 19]
46% |  | 29% | 71% | 0.0863 µM | CC1CCCC1N1C(=O)C2(CC2)c2cnc(NC3CCN(S(=O)(=O)N4CC5(CCN(C(=O)CCc6cccc7c6n(C)c(=O)n7C6CCC(=O)NC6=O)CC5)C4)CC3)nc21 (stereo not drawn) [Compound 20]
54% | 0.041 µM | 28% | 28% |  | CC1CCCC1N1C(=O)C2(CC2)c2cnc(NC3CCN(S(=O)(=O)N4CCC5(CCN(C(=O)CCc6cccc7c6n(C)c(=O)n7C6CCC(=O)NC6=O)C5)C4)CC3)nc21 (stereo not drawn) [Compound 21]
57% | 0.044 µM | 18% | 35% |  | CC1CCCC1N1C(=O)C2(CC2)c2cnc(NC3CCN(S(=O)(=O)N4CC(N(C)C(=O)CCCc5cccc6c5n(C)c(=O)n6C5CCC(=O)NC5=O)C4)CC3)nc21 (stereo not drawn) [Compound 22, 4-(1-(2,6-dioxopiperidin-3-yl)-3-methyl-2-oxo-2,3-dihydro-1H-benzo[d]imidazol-4-yl)-N-methyl-N-(1-((4-((7′-(2-methylcyclopentyl)-6′-oxo-6′,7′-dihydrospiro[cyclopropane-1,5′-pyrrolo[2,3-d]pyrimidin]-2′-yl)amino)piperidin-1-yl)sulfonyl)azetidin-3-yl)butanamide]
64% | 0.098 µM | 20% | 49% |  | CC1CCCC1N1C(=O)C2(CC2)c2cnc(NC3CCN(S(=O)(=O)N4CC5CN(C(=O)CCCc6cccc7c6n(C)c(=O)n7C6CCC(=O)NC6=O)CC5C4)CC3)nc21 (stereo not drawn) [Compound 23]
41% |  | 21% | -1% |  | CC1CCCC1N1C(=O)C2(CC2)c2cnc(NC3CCN(S(=O)(=O)N4CCCC45CCN(C(=O)CCCc4cccc6c4n(C)c(=O)n6C4CCC(=O)NC4=O)C5)CC3)nc21 (stereo not drawn) [Compound 24]
29% |  | 25% | 15% |  | CC1CCCC1N1C(=O)C2(CC2)c2cnc(NC3CCN(S(=O)(=O)N4CCC5(CCCN5C(=O)CCCc5cccc6c5n(C)c(=O)n6C5CCC(=O)NC5=O)C4)CC3)nc21 (stereo not drawn) [Compound 25]
42% |  | 8% | 9% |  | CC1CCCC1N1C(=O)C2(CC2)c2cnc(NC3CCN(S(=O)(=O)N4CC5(CCCCN5C(=O)CCCc5cccc6c5n(C)c(=O)n6C5CCC(=O)NC5=O)C4)CC3)nc21 (stereo not drawn) [Compound 26]
57% | 0.019 µM | 27% | 49% |  | CC1CCCC1N1C(=O)C2(CC2)c2cnc(NC3CCN(S(=O)(=O)N4CCN(C(=O)CCCc5cccc6c5n(C)c(=O)n6C5CCC(=O)NC5=O)CC4)CC3)nc21 (stereo not drawn) [Compound 27]
42% |  | 8% | 8% |  | CC1CCCC1N1C(=O)C2(CC2)c2cnc(NC3CCN(S(=O)(=O)N4CC5(CCCN(C(=O)CCCc6cccc7c6n(C)c(=O)n7C6CCC(=O)NC6=O)C5)C4)CC3)nc21 (stereo not drawn) [Compound 28]
76% | 0.035 µM | 47% | 57% | 0.0958 µM | CC1CCCC1N1C(=O)C2(CC2)c2cnc(NC3CCN(S(=O)(=O)N4CC5(CN(C(=O)CCCc6cccc7c6n(C)c(=O)n7C6CCC(=O)NC6=O)C5)C4)CC3)nc21 (stereo not drawn) [Compound 29]
72% | 0.011 µM | 37% | 75% | 0.0176 µM | CC1CCCC1N1C(=O)C2(CC2)c2cnc(NC3CCN(S(=O)(=O)N4CC5(CCN(C(=O)CCCc6cccc7c6n(C)c(=O)n7C6CCC(=O)NC6=O)CC5)C4)CC3)nc21 (stereo not drawn) [Compound 30]
62% | 0.017 µM | 14% | 15% |  | CC1CCCC1N1C(=O)C2(CC2)c2cnc(NC3CCN(S(=O)(=O)N4CC5C4CCN5C(=O)CCCc4cccc5c4n(C)c(=O)n5C4CCC(=O)NC4=O)CC3)nc21 (stereo not drawn) [Compound 31]
59% | 0.086 µM | 22% | 41% |  | CC1CCCC1N1C(=O)C2(CC2)c2cnc(NC3CCN(S(=O)(=O)N4CCC5(CCN(C(=O)CCCc6cccc7c6n(C)c(=O)n7C6CCC(=O)NC6=O)C5)C4)CC3)nc21 (stereo not drawn) [Compound 32]
